In ChEMBL document CHEMBL1154570, “HIV-inhibitory cembrane derivatives from a Philippines collection of the soft coral Lobophytum species” (J Nat Prod, 2000) one finds EC50, IC50 and Activity data, which are given here for three molecules.

Experiment [1] deals with Human immunodeficiency virus 1. Briefly: Antiviral activity against HIV1 assessed as inhibition of cytopathic effect by cell based XTT assay. The format is functional, organism-based.
For experiment [2], the system named is Human immunodeficiency virus 1. Briefly: Antiviral activity against HIV1 assessed as cellular protection by cell based XTT assay. The experiment is classed as functional.

SMILES strings stand for the structures. Converted amounts (≈) assume the structure as drawn.

With `C/C1=C\[C@@H]2OC(=O)[C@@H](CN(C)C)[C@@H]2CC/C(C)=C/CC/C(C(=O)O)=C/CC1`, in experiment [1], the half-maximal effective concentration (EC50) worked out at 3.3 µg/mL (≈ 8.79 µM) and the concentration for half-maximal inhibition (IC50) came out at 10.2 µg/mL (≈ 27.2 µM). The Activity in experiment [2] is 55%.
The like results for `C=C1C(=O)O[C@H]2/C=C(\C)CC/C=C(/C(=O)O)CC/C=C(\C)CC[C@@H]12` [LOBOHEDLEOLIDE] were, in that order, 3.6 µg/mL (≈ 10.9 µM), 9 µg/mL (≈ 27.2 µM) and 55%.
On the same counts, the results for `C=C1C(=O)O[C@H]2/C=C(\C)CC/C=C(\C(=O)O)CC/C=C(\C)CC[C@@H]12` [(7Z)-LOBOHEDLEOLIDE] are 4.6 µg/mL (≈ 13.9 µM), 7.6 µg/mL (≈ 23 µM) and 55%.
